Reference: the supplement of paper PMC11451515

Test system: NOMO1
Experiment: cell viability relative to DMSO control; higher = less cytotoxic
Details: 48 h
In short: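 Viability, reported as a per-plate percentage of DMSO wells with cell-free wells as background, came from CellTiter-Glo One luminescence. Reading took place after 48 h at 37°C. Before that, NOMO1 or SEM (500 cells/well) or P12-Ichikawa (1000 cells/well) leukemia cells, adapted for at least four passages in each medium, were seeded in 1536-well plates (5 μl) and pin-dosed with library compounds in DMSO, 47 μM to 0.79 nM over 11 threefold points.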

[1] = HPLM + 10% dialyzed FBS, 0.000781 µM
[2] = HPLM + 10% dialyzed FBS, 0.00234 µM
[3] = HPLM + 10% dialyzed FBS, 0.00702 µM
[4] = HPLM + 10% dialyzed FBS, 0.0211 µM
[5] = HPLM + 10% dialyzed FBS, 0.0632 µM
[6] = HPLM + 10% dialyzed FBS, 0.19 µM
[7] = HPLM + 10% dialyzed FBS, 0.569 µM
[8] = HPLM + 10% dialyzed FBS, 1.71 µM
[9] = HPLM + 10% dialyzed FBS, 5.12 µM
[10] = HPLM + 10% dialyzed FBS, 15.4 µM
[11] = HPLM + 10% dialyzed FBS, 46.1 µM
[12] = RPMI 5 mM glucose + 10% FBS, 0.000781 µM
[13] = RPMI 5 mM glucose + 10% FBS, 0.00234 µM
[14] = RPMI 5 mM glucose + 10% FBS, 0.00702 µM
[15] = RPMI 5 mM glucose + 10% FBS, 0.0211 µM
[16] = RPMI 5 mM glucose + 10% FBS, 0.0632 µM
[17] = RPMI 5 mM glucose + 10% FBS, 0.19 µM
[18] = RPMI 5 mM glucose + 10% FBS, 0.569 µM
[19] = RPMI 5 mM glucose + 10% FBS, 1.71 µM
[20] = RPMI 5 mM glucose + 10% FBS, 5.12 µM
[21] = RPMI 5 mM glucose + 10% FBS, 15.4 µM
[22] = RPMI 5 mM glucose + 10% FBS, 46.1 µM
[23] = RPMI 5 mM glucose + 10% dialyzed FBS, 0.000781 µM
[24] = RPMI 5 mM glucose + 10% dialyzed FBS, 0.00234 µM
[25] = RPMI 5 mM glucose + 10% dialyzed FBS, 0.00702 µM
[26] = RPMI 5 mM glucose + 10% dialyzed FBS, 0.0211 µM
[27] = RPMI 5 mM glucose + 10% dialyzed FBS, 0.0632 µM
[28] = RPMI 5 mM glucose + 10% dialyzed FBS, 0.19 µM
[29] = RPMI 5 mM glucose + 10% dialyzed FBS, 0.569 µM
[30] = RPMI 5 mM glucose + 10% dialyzed FBS, 1.71 µM
[31] = RPMI 5 mM glucose + 10% dialyzed FBS, 5.12 µM
[32] = RPMI 5 mM glucose + 10% dialyzed FBS, 15.4 µM
[33] = RPMI 5 mM glucose + 10% dialyzed FBS, 46.1 µM

Structure (SMILES)	cell viability [1] [%]	cell viability [2] [%]	cell viability [3] [%]	cell viability [4] [%]	cell viability [5] [%]	cell viability [6] [%]	cell viability [7] [%]	cell viability [8] [%]	cell viability [9] [%]	cell viability [10] [%]	cell viability [11] [%]	cell viability [12] [%]	cell viability [13] [%]	cell viability [14] [%]	cell viability [15] [%]	cell viability [16] [%]	cell viability [17] [%]	cell viability [18] [%]	cell viability [19] [%]	cell viability [20] [%]	cell viability [21] [%]	cell viability [22] [%]	cell viability [23] [%]	cell viability [24] [%]	cell viability [25] [%]	cell viability [26] [%]	cell viability [27] [%]	cell viability [28] [%]	cell viability [29] [%]	cell viability [30] [%]	cell viability [31] [%]	cell viability [32] [%]	cell viability [33] [%]
CN(C)CCOc1cc(-c2cn[nH]c2)ccc1NC(=O)C1COc2ccccc2O1 (stereo unspecified)	84.2	104	118	122	118	106	119	107	122	93.9	67.1	105	93.2	110	127	94.7	97.5	114	96.3	85.4	81.5	64.3	98.5	100	106	112	114	97.7	102	96.9	91.5	71.8	77
CCCc1nc(C(C)(C)O)c(C(=O)O)n1Cc1ccc(-c2ccccc2-c2nn[nH]n2)cc1	97.7	111	107	114	119	120	149	115	113	119	126	107	103	105	110	105	125	123	113	112	114	124	106	104	115	116	114	117	124	113	128	126	112
OC1=CC=C(C=C1)\C2=C\OC3=C(C=CC(=C3)O)C2=O	97.3	92.8	102	119	118	99.6	105	106	104	93.9	99.6	93.1	91.6	89	93.4	119	96.2	92.4	86.8	103	100	94.2	98.8	108	84.2	107	112	96.1	105	96.6	102	89	94.5
NC(=O)c1cnc(N[C@@H]2CCCC[C@@H]2N)nc1Nc1cccc(-n2nccn2)c1	118	120	123	153	140	141	154	116	138	110	75																						
CC(C)[C@@H](N(CCCN)C(=O)C1=CC=C(C)C=C1)C/2=N/C3=CC(=CC=C3C(=O)N2CC4=CC=CC=C4)Cl	88.4	25.4	29.7	21.4	20.8	27.1	28	24.4	20	15.8	11.4	81.9	16	16.1	17.8	16.9	15.3	15.3	14.3	9.97	9.55	7.35	78.1	24	24.8	21.9	22.9	24.4	18.7	15.8	11.7	16.3	11.1
CC(N[C@H]1C[C@@H]1c1ccccc1)c1ccc2c(c1)OCCO2 (stereo partly specified)												105	117	116	106	103	102	113	112	114	98.7	109	115	124	115	126	119	114	126	123	110	118	111
CN1[C@@H]2CC(OC(=O)[C@@H](CO)c3ccccc3)C[C@H]1[C@H]1O[C@H]12 (stereo partly specified)	94.8	120	108	124	103	104	106	95.8	93.8	92.3	121	87.3	86.7	101	85.5	90.3	85.2	86.3	93.4	82.9	81.4	81.3	80.4	95.5	98.8	88.5	102	103	90.9	99.4	88.2	95.4	89.8
CC1(C)Cc2c(-c3ccccc3)c(-c3ccc(Cl)cc3)c(CC(=O)O)n2C1	115	106	130	131	111	120	128	106	108	99.5	90.6	102	123	118	124	119	115	112	101	99	111	96.8	110	114	105	115	117	113	114	106	105	91.8	89.2
